What all share (type): cell-based
The nature of data set [1]: in vitro. As to conditions: African green monkey, CC50. The procedure: In parallel, the toxicity of the compounds was assessed on the same plates. Once the read-out for the eGFP signal was done, 10 μL of resazurin, a cell viability stain, was added to all wells of the 384-well plates. The resazurin assay is based on the reduction of the blue resazurin by NADH, produced by the cells, into the highly fluorescent product, resorufin. The formation of pink fluorescent resorufin is directly related to the number of viable cells in the well. The plates were incubated for an additional 5 hours in a fully humidified incubator (37° C., 5% CO2). Next, the plates were measured on an Infinite reader (Tecan) using an excitation wavelength of 530 nm. The half maximal cytotoxic concentration (CC50) was also determined, defined as the concentration required to reduce the resazurin conversion by 50% compared to that of the cell control wells (Table 1). Finally, the selectivity index (SI) is determined for the compounds, which is calculated as followed: SI=CC50/EC50.

The subject of data set [2] is DENV-1 Djibouti strain D1/H/IMTSSA/98/606. Put plainly: Tetravalent RT-qPCR assay Protocol B, serotype 1. As to conditions: Dengue virus, DENV1, 168 h, RT-qPCR serotype 1 Djibouti, Vero cells, 7 days. How it is done:
Vero cells (4×10^4) were seeded in 96-well plates. After one day, cell culture medium was replaced with 100 μL assay medium containing a 2×, 3× or 5× serial dilution of the compound (concentration range: 50 μg/mL-0.00038 μg/mL, 50 μg/mL-0.0076 μg/mL, and 50 μg/mL-0.00013 μg/mL, respectively) and 100 μL of dengue virus dilution, where a Ct of ˜20 is achieved in RTqPCR. Following a 2 hour incubation period, the cell monolayer was washed 3 times with assay medium to remove residual, non-adsorbed virus and cultures were further incubated for either 4 days (DENV-2 NGC-Tongalike) or 7 days (DENV-1 Djibouti strain D1/H/IMTSSA/98/606, DENV-3 strain H87 prototype, DENV-4 strain H241) in the presence of the inhibitor. Supernatant was harvested and viral RNA load was determined by real-time quantitative RT-PCR. The 50% effective concentration (EC50), which is defined as the compound concentration that is required to inhibit viral RNA replication by 50%, was determined using logarithmic interpolation (Tables 7 and 8).
RNA was isolated from 100 μL supernatant with the NucleoSpin 96 Virus kit (Filter Service, Düren, Germany) as described by the manufacturer. The sequences of the TaqMan primers (DENV-For, DENV-Rev; Table 5) and TaqMan probes (DENV-Probe Table 5) were selected from non-structural gene 3 (NS3) or NSS, of the respective flaviviruses using Primer Express software (version 2.0; Applied Biosystems, Lennik, Belgium). The TaqMan probe was fluorescently labelled with 6-carboxyfluorescein (FAM) at the 5′ end as the reporter dye, and with minor groove binder (MGB) at the 3′ end as the quencher (Table 5). One-step, quantitative RT-PCR was performed in a total volume of 25 μL, containing 13.9375 μL H2O, 6.25 μL master mix (Eurogentec, Seraing, Belgium), 0.375 μL forward primer, 0.375 μL reverse primer, 1 μL probe, 0.0625 μL reverse transcriptase (Eurogentec) and 3 μL sample. RT-PCR was performed using the ABI 7500 Fast Real-Time PCR System (Applied Biosystems, Branchburg, N.J., USA) using the following conditions: 30 min at 48° C. and 10 min at 95° C., followed by 40 cycles of 15 s at 95° C. and 1 min at 60° C. The data was analyzed using the ABI PRISM 7500 SDS software (version 1.3.1; Applied Biosystems). For absolute quantification, standard curves were generated using 10-fold dilutions of template preparations of known concentrations.

Data set [3] can be described thus: in vitro. As to conditions: African green monkey, CC50. How it is done: (§1) Potential cytotoxic effects of the compounds were evaluated in uninfected Vero cells. Cells were seeded at 4×10^4 cells/well in a 96-well plate in the presence of two-, three- or five-fold serial dilutions (ranging from 50 μg/mL-0.0038 μg/mL, 50 μg/mL-0.0076 μg/mL, and 50 μg/mL-0.00013 μg/mL, respectively) of compound and incubated for 4 to 7 days. Culture medium was discarded and 100 μL 3-(4,5-dimethylthiazol-2-yl)-5-(3-carboxymethoxyphenyl)-2-(4-sulfophenyl)-2H-tetrazolium/phenazinemethosulfate (MTS/PMS; Promega, Leiden, The Netherlands) in PBS was added to each well. Following a 2-hour incubation period at 37° C., the optical density was determined at 498 nm. Cytotoxic activity was calculated using the following formula: % cell viability=100×(ODCompound/ODCC), where ODCompound and ODCC correspond to the optical density at 498 nm of the uninfected cell cultures treated with compound and that of uninfected, untreated cell cultures, respectively. The 50% cytotoxic concentration (i.e., the concentration that reduces the total cell number with 50%; CC50) was calculated using linear interpolation (Tables 7 and 8).
The source holds these as a separate data set.

The test system of the next data set is uninfected Vero cells. Put plainly: in vitro. As to conditions: African green monkey. How it is done: as §1

Bounds are passed on as bounds.

As usually defined, the CC50 is the concentration that lowers cell viability or growth by half. One may read the EC50 as the concentration needed to bring the measured effect to its halfway point.

As for `COc1cc(NC(C(=O)c2c[nH]c3cc(OC)c(F)cc23)c2ccc(Cl)cc2OC)cc(OCCO)c1` (single isomer, unassigned) [Compound 7A, 2-(4-chloro-2-methoxyphenyl)-1-(5-fluoro-6-methoxy-1H-indol-3-yl)-2-((3-(2-hydroxyethoxy)-5-methoxyphenyl)amino)ethanone], the CC50 in “in vitro [1]” came to 6.1 µM; in “in vitro [3]” it was 7.2 µM; in the data set with uninfected Vero cells, 12 µM. In data set [2], this compound gave an EC50 of 0.02 µM.
As to `COc1cc(NC(C(=O)c2c[nH]c3c(F)cc(C)cc23)c2ccc(Cl)cc2OC)cc(OCCO)c1` (single isomer, unassigned) [Compound 10A, 2-(4-chloro-2-methoxyphenyl)-1-(7-fluoro-5-methyl-1H-indol-3-yl)-2-((3-(2-hydroxyethoxy)-5-methoxyphenyl)amino)ethanone], the CC50 in “in vitro [1]” was 4.5 µM; in “in vitro [3]” it was 8 µM; in the data set with uninfected Vero cells it was 12 µM. This compound returned an EC50 in data set [2] of 0.02 µM.
On the same counts, the results for `COc1cc(NC(C(=O)c2c[nH]c3c(C)c(Cl)ccc23)c2ccc(Cl)cc2OC)cc(OCCO)c1` (single isomer, unassigned) [Compound 3A, 2-(4-chloro-2-methoxyphenyl)-1-(6-chloro-7-methyl-1H-indol-3-yl)-2-((3-(2-hydroxyethoxy)-5-methoxyphenyl)amino)ethanone] are 4.5 µM, 7.7 µM, 12 µM and 0.018 µM.
`COc1cc(NC(C(=O)c2c[nH]c3c(C)cc(F)cc23)c2ccc(Cl)cc2OC)cc(OCCO)c1` (single isomer, unassigned) [Compound 8A, 2-(4-chloro-2-methoxyphenyl)-1-(5-fluoro-7-methyl-1H-indol-3-yl)-2-((3-(2-hydroxyethoxy)-5-methoxyphenyl)amino)ethanone]: the CC50 in the data set “in vitro [1]” was found to be 4.2 µM; in the data set “in vitro [3]”, 7.7 µM; with uninfected Vero cells it was 11 µM. The same compound returned an EC50 in data set [2] of 0.017 µM.
On the same counts, the results for `COc1cc(NC(C(=O)c2c[nH]c3cc(F)ccc23)c2ccc(Cl)cc2OC)cc(OCCO)c1` (single isomer, unassigned) [Compound 1A, 2-(4-chloro-2-methoxyphenyl)-1-(6-fluoro-1H-indol-3-yl)-2-((3-(2-hydroxyethoxy)-5-methoxyphenyl)amino)ethanone] are 4.3 µM, 9.7 µM, 14 µM and 0.022 µM.
In the case of `COc1cc(NC(C(=O)c2c[nH]c3cc(OC)ccc23)c2ccc(Cl)cc2OC)cc(OCCO)c1` (single isomer, unassigned) [Compound 5A, 2-(4-chloro-2-methoxyphenyl)-2-((3-(2-hydroxyethoxy)-5-methoxyphenyl)amino)-1-(6-methoxy-1H-indol-3-yl)ethanone], the CC50 in “in vitro [1]” came out at 5.9 µM; in “in vitro [3]”, 7.8 µM; with uninfected Vero cells it was 11 µM. Besides, a half-maximal response in data set [2] (EC50) required 0.019 µM.
Compound `COc1cc(NC(C(=O)c2c[nH]c3c(F)c(F)ccc23)c2ccc(Cl)cc2OC)cc(OCCO)c1` (single isomer, unassigned) [Compound 11B, 2-(4-chloro-2-methoxyphenyl)-1-(6,7-difluoro-1H-indol-3-yl)-2-((3-(2-hydroxyethoxy)-5-methoxyphenyl)amino)ethanone] returned an EC50 in data set [2] of 0.025 µM. Besides, the CC50 turned out to be 7.7 µM in the data set “in vitro [3]” and 11 µM with uninfected Vero cells.
On to `COc1cc(NC(C(=O)c2c[nH]c3c(C)c(F)ccc23)c2ccc(Cl)cc2OC)cc(OCCO)c1` (single isomer, unassigned) [Compound 2A, 2-(4-chloro-2-methoxyphenyl)-1-(6-fluoro-7-methyl-1H-indol-3-yl)-2-((3-(2-hydroxyethoxy)-5-methoxyphenyl)amino)ethanone], for which the CC50 was found to be 4.2 µM in the data set “in vitro [1]”, 7.4 µM in the data set “in vitro [3]” and 13 µM with uninfected Vero cells. Besides, it took 0.017 µM to reach a half-maximal effect in data set [2] (EC50).
On the same counts, the results for `COc1cc(NC(C(=O)c2c[nH]c3cc(F)c(F)cc23)c2ccc(Cl)cc2OC)cc(OCCO)c1` (single isomer, unassigned) [Compound 9A, 2-(4-chloro-2-methoxyphenyl)-1-(5,6-difluoro-1H-indol-3-yl)-2-((3-(2-hydroxyethoxy)-5-methoxyphenyl)amino)ethanone] are 3.9 µM, 7.9 µM, 12 µM and 0.019 µM.
As to `COc1cc(NC(C(=O)c2c[nH]c3cc(Cl)ccc23)c2ccc(Cl)cc2OC)cc(OCCO)c1` (single isomer, unassigned) [Compound 4A, 1-(6-chloro-1H-indol-3-yl)-2-(4-chloro-2-methoxyphenyl)-2-((3-(2-hydroxyethoxy)-5-methoxyphenyl)amino)ethanone], the CC50 amounted to 4.9 µM in “in vitro [1]”, 9.5 µM in “in vitro [3]” and 13 µM in the data set on uninfected Vero cells. In data set [2], this compound yielded an EC50 of 0.02 µM.
For `COc1cc(NC(C(=O)c2c[nH]c3cc(OC)c(C)cc23)c2ccc(Cl)cc2OC)cc(OCCO)c1` (single isomer, unassigned) [Compound 6A, 2-(4-chloro-2-methoxyphenyl)-2-((3-(2-hydroxyethoxy)-5-methoxyphenyl)amino)-1-(6-methoxy-5-methyl-1H-indol-3-yl)ethanone], in that order: 5.1 µM, 8.1 µM, 13 µM and less than 0.015 µM.

Source of the values: patent publication US9944598B2, “Mono- or di-substituted indole derivatives as dengue viral replication inhibitors” (priority 2014, dated 2018).
